Measurements taken from patent US20250314586A1, “SYSTEMS AND METHODS FOR HIGH THROUGHPUT SINGLE MOLECULE TRACKING IN LIVING CELLS” (EIKON THERAPEUTICS, INC., priority 2022, published 2025).
“Also recorded” adds a separate entry of the source. Where two headings read alike, the source gives them in different places.

Tests used:
Estrogen Receptor (ER) [1] = molecular target: T1, Estrogen Receptor (ER) (Homo sapiens, UniProt P03372); test: htSMT of Halo-ER in U2OS cells (fbound, Dfree); format: cell-based; settings: for effect of pathway inhibitors on ER fbound / ER movement: retest and dose titration of pathway inhibitors
T1 construct: expressed in transfected cells; host or cells: U2OS
T1 sequence (P03372 1-595): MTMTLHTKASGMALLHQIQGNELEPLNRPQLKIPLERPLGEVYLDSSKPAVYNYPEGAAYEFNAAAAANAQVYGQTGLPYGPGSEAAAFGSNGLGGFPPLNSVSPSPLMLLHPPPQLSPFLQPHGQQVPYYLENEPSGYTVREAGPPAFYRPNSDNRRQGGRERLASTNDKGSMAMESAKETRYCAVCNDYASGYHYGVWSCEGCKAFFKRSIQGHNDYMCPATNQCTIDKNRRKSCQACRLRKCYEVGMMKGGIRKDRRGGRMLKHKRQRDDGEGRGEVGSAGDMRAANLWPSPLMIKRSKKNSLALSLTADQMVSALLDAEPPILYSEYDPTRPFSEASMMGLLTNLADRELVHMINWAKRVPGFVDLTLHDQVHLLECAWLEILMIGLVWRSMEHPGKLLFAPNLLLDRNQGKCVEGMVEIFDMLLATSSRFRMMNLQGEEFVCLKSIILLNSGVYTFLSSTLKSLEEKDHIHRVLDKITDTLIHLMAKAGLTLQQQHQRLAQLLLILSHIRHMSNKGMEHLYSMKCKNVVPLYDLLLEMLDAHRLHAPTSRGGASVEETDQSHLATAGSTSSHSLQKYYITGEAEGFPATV

ER = ER (Homo sapiens, UniProt P03372); test: Western blot of ER after compound treatment; format: cell-based; settings: 100 nM fulvestrant, 24 hours; MCF7, T47d, U2OS Halo-ER
Experimental: Cells were grown in the same conditions as described previously. […] Cells are lysed in 200 μL 1× Cell Lysis Buffer (catalogue number 9803, Cell Signaling). Protein lysate concentration is then determined using BCA protein assay kit (Catalog number 23225, Pierce™ BCA Protein Assay Kit) following manufacturer instructions. Capillary Western Immunoassay were performed using Jess Protein Simple following manufacturer's instruction (protein simple, USA). Levels of αER (1:100, RM-9101) were normalized to loading control β-tubulin (1:100, NC0244815 LI-COR 92642213, Thermo Fisher). The peaks were analyzed with the Compass software (Protein Simple, USA).

[2] = molecular target: T2, glucocorticoid receptor (GR) (Homo sapiens, UniProt P04150); test: htSMT of Halo-GR in U2OS cells; format: cell-based; settings: 1 μM antagonist, singly or co-administered with cognate agonist
T2 construct: Because U2OS cells express GR endogenously, HaloTag was inserted right before the stop codon of endogenous NR3C1; endogenous in cells; host or cells: U2OS (CRISPR/Cas9 knock-in at the NR3C1 locus)
T2 sequence (P04150 1-777): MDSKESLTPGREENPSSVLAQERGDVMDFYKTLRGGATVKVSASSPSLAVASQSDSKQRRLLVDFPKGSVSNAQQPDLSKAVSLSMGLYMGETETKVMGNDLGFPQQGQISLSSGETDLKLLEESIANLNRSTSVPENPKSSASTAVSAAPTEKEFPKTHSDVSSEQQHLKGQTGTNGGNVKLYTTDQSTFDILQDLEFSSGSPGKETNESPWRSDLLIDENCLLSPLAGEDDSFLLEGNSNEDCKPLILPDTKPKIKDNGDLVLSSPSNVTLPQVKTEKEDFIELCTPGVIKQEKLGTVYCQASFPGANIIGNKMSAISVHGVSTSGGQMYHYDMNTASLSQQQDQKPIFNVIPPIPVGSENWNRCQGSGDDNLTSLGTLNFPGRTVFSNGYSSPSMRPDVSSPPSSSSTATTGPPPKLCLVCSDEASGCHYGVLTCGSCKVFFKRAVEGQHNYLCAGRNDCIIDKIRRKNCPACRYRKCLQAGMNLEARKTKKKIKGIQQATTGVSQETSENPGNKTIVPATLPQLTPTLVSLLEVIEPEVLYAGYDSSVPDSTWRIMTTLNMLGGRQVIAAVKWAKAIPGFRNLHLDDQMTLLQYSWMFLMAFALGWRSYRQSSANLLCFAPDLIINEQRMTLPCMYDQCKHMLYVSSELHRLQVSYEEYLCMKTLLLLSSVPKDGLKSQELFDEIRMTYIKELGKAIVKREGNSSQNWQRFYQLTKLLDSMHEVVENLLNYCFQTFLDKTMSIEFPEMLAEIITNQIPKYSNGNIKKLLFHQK
Excerpt: Where appropriate, compounds were serially diluted in an Echo Qualified 384-Well Low Dead Volume Source Microplate (0018544, Beckman Coulter) to generate dose-titration source material.

Estrogen Receptor (ER) [3] = molecular target: T1, Estrogen Receptor (ER); test: kinetic SMT (kSMT) of ER after compound addition; format: cell-based; settings: 100 nM compound
Estrogen Receptor (ER) [4] = molecular target: T1, Estrogen Receptor (ER); test: residence time imaging of ER-Halo (track length survival); format: cell-based; settings: 100 nM HSP90 inhibition, normalized to DMSO
androgen receptor (AR) = androgen receptor (AR) (Homo sapiens, UniProt P10275)
androgen receptor (AR), sequence (P10275 whole entry): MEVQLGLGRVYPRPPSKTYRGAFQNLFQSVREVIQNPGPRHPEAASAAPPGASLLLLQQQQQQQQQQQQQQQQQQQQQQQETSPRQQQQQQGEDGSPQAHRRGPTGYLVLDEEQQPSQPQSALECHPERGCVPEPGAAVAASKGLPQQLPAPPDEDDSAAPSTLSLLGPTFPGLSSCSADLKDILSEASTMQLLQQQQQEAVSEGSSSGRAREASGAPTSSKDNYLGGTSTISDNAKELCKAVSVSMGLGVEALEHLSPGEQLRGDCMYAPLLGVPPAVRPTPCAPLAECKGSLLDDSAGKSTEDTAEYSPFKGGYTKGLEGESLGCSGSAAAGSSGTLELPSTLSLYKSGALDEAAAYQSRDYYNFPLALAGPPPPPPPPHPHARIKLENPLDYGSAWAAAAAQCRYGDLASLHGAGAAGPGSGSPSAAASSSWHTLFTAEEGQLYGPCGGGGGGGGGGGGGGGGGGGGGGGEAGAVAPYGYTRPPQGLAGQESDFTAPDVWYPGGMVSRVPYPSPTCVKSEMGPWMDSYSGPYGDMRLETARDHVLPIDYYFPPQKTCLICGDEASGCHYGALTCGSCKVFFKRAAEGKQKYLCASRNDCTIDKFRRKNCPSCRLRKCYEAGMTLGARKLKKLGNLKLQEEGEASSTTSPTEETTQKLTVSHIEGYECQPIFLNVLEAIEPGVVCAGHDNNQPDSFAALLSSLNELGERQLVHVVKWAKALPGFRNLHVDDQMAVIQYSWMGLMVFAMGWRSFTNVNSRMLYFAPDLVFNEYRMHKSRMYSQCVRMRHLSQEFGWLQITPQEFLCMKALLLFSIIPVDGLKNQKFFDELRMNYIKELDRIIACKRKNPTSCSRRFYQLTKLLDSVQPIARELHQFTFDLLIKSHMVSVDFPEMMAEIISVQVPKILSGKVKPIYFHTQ

Compound	effect of pathway inhibitors on ER fbound / ER movement (Estrogen Receptor (ER) [1])	t1/2 of increase in ER fbound (Estrogen Receptor (ER) [3])	time at which overall effect on ER fbound reaches plateau (Estrogen Receptor (ER) [3])	decrease in total number of long binding events (Estrogen Receptor (ER) [4])	further results
C[C@]12CC[C@@H]3c4ccc(O)cc4C[C@@H](CCCCCCCCC[S+]([O-])CCCC(F)(F)C(F)(F)F)[C@H]3[C@@H]1CC[C@@H]2O (some centres unmarked) [fulvestrant]	–	–	–	–	change in ER fbound, bioactive screen (Estrogen Receptor (ER) [1]; 1 μM compound versus DMSO, 5,067-molecule screen): caused an increase in fbound; also recorded: significantly increased fbound; ER degradation by western blot (ER): leads to the degradation of ER
4-hydroxytamoxifen	–	–	–	–	change in ER fbound, bioactive screen (Estrogen Receptor (ER) [1]): significantly increased fbound; maximal increase in ER fbound, compared with SERDs fulvestrant and GDC-0927 (Estrogen Receptor (ER) [1]): lower maximal increases in fbound
CN(C)c1ccc(C(c2ccc(N(C)C)cc2)c2cc([N+](=O)[O-])ccc2Cl)cc1 [AL082D06]	–	–	–	–	effect on GR chromatin binding (fbound) [2]: decrease in chromatin binding
CC(C)c1cc(-c2n[nH]c(=O)n2-c2ccc3c(ccn3C)c2)c(O)cc1O [ganetespib]	increase in fbound	19.3 min	plateau after an hour	four	–
COc1cccc(-c2cc(F)ccc2[C@H]2Cc3nc(N)nc(C)c3C(=O)N2)n1 [HSP990]	increase in fbound	17.5 min	plateau after an hour	two	–
CC(O)c1cc(C(=O)N[C@@H](C)Cn2ccc(-c3ccc(C#N)c(Cl)c3)n2)[nH]n1 (some centres unmarked) [Darolutamide]	–	–	–	–	effect on AR chromatin binding (fbound) (androgen receptor (AR)): decrease in chromatin binding
